Source: patent publication US9333202B2, “Non-retinoid antagonists for treatment of age-related macular degeneration and stargardt disease” (THE TRUSTEES OF COLUMBIA UNIVERSITY IN THE CITY OF NEW YORK, priority 2012, dated 2016)
“Also recorded” adds a separate entry of the source.

Legend:
human RBP4 = target: T1, human RBP4 (Homo sapiens, UniProt P02753); test: Scintillation proximity (SPA) RBP4 binding assay; conditions: for IC50: 10 nM 3H-retinol, 50 nM biotinylated RBP4, each value one experiment, read-out: IC50 in SPA-based RBP4 binding assay
T1 construct: Untagged human RBP4 purified from urine of tubular proteinuria patients; purchased Fitzgerald Industries International; host or cells: human urine (tubular proteinuria patients)
Method: Untagged human RBP4 purified from urine of tubular proteinuria patients was purchased from Fitzgerald Industries International. It was biotinylated using the EZ-Link Sulfo-NHS-LC-Biotinylation kit from Pierce following the manufacturer's recommendations. Binding experiments were performed in 96-well plates (OptiPlate, PerkinElmer) in a final assay volume of 100 μl per well in SPA buffer (1×PBS, pH 7.4, 1 mM EDTA, 0.1% BSA, 0.5% CHAPS). The reaction mix contained 10 nM ^3H-Retinol (48.7 Ci/mmol; PerkinElmer), 0.3 mg/well Streptavidin-PVT beads, 50 nM biotinylated RBP4 and a test compound. Nonspecific binding was determined in the presence of 20 μM of unlabeled retinol. The reaction mix was assembled in the dark under dim red light. The plates were sealed with clear tape (TopSeal-A: 96-well microplate, PerkinElmer), wrapped in the aluminum foil, and allowed to equilibrate 6 hours at room temperature followed by overnight incubation at +4° C. Radiocounts were measured using a TopCount NXT counter (Packard Instrument Company).

RBP4-TTR interaction [1] = target: T2, RBP4-TTR interaction (Homo sapiens, UniProt P02753); test: HTRF/TR-FRET assay for retinol-dependent RBP4-TTR interaction (1 μM retinol); assay type: biochemical; design: human RBP4 fragment (amino acids 19-201) was expressed in the Gold(DE3)pLysS E. coli strain; made in house; host or cells: E. coli Gold(DE3)pLysS (Stratagene), pMAL-c4x vector; conditions: for IC50: in the presence of 1 μM retinol, each value one experiment, read-out: IC50 in HTRF-based retinol-dependent RBP4-TTR interaction assay
Text: Bacterially expressed MBP-RBP4 and untagged TTR were used in this assay. For the use in the TR-FRET assay the maltose binding protein (MBP)-tagged human RBP4 fragment (amino acids 19-201) was expressed in the Gold(DE3)pLysS E. coli strain (Stratagene) using the […] vector. Following cell lysis, recombinant RBP4 was purified from the soluble fraction using the ACTA FPLC system (GE Healthcare) equipped with the 5-ml the MBP Trap HP column. Human untagged TTR was purchased from Calbiochem. Untagged TTR was labeled directly with Eu^3+ Cryptate-NHS using the HTRF Cryptate Labeling kit from CisBio following the manufacturer's recommendations. HTRF assay was performed in white low volume 384 well plates (Greiner-Bio) in a final assay volume of 16 μl per well. The reaction buffer contained 10 mM Tris-HCl pH 7.5, 1 mM DTT, 0.05% NP-40, 0.05% Prionex, 6% glycerol, and 400 mM KF. Each reaction contained 60 nM MBP-RBP4 and 2 nM TTR-Eu along with 26.7 nM of anti-MBP antibody conjugated with d2 (Cisbio). Titration of test compounds in this assay was conducted in the presence of 1 μM retinol. All reactions were assembled in the dark under dim red light and incubated overnight at +4° C. wrapped in aluminum foil. TR-FRET signal was measured in the SpectraMax M5e Multimode Plate Reader (Molecular Device). Fluorescence was excited at 337 nm and two readings per well were taken: Reading 1 for time-gated energy transfer from Eu(K) to d2 (337 nm excitation, 668 nm emission, counting delay 75 microseconds, counting window 100 microseconds) and Reading 2 for Eu(K) time-gated fluorescence (337 nm excitation, 620 nm emission, counting delay 400 microseconds, counting window 400 microseconds). The TR-FRET signal was expressed as the ratio of fluorescence intensity: Flu665/Flu620×10,000.

RBP4-TTR interaction [2] = target: T2, RBP4-TTR interaction; test: TR-FRET (HTRF) assay for antagonists of retinol-induced RBP4-TTR interaction, agonist and antagonist mode (Example 2); assay type: biochemical; design: made in house; host or cells: E. coli; conditions: agonist mode, dose titration
Text: TR-FRET (Time-Resolved Fluorescence Resonance Energy Transfer) is an assay format that can be used in characterization of compounds affecting protein-protein interactions (31-33). […] In the presence of retinol, RBP4-TTR interaction induces FRET that can be registered as increased ratio of […] fluorescence signals. Binding of a desired RBP4 antagonist displaces retinol and induces hindrance for RBP4-TTR interaction resulting in the decreased FRET signal (FIG. 7).
The assay was developed using E. coli-expressed MBP-tagged RBP4 and commercially available TTR labeled directly with Eu3+ cryptate. In addition to MBP-RBP4 and Eu3+ (K)-TTR, a detector reagent anti-MBP-d2 was present in the mix. The assay was first optimized in the agonist mode; sensitivity and dynamic range of the assay was […] in respect to RBP4, TTR and detection reagent concentrations.

| Compound | Binding to RBP4 in vitro (in words) (human RBP4) | IC50 (human RBP4) [µM] | Antagonism of RBP4-TTR interaction in vitro (in words) (RBP4-TTR interaction [1]) | IC50 (RBP4-TTR interaction [1]) [µM] | Induction of RBP4-TTR interaction (RBP4-TTR interaction [2]) |
| --- | --- | --- | --- | --- | --- |
| O=C(c1c[nH]cn1)N1CCC(c2ccccc2C(F)(F)F)CC1 [Compound 48] | bind to RBP4 | 0.00568 | antagonize retinol-dependent RBP4-TTR interaction | 0.106 |  |
| CS(=O)(=O)c1ccc(NC(=O)N2CCC(c3ccccc3C(F)(F)F)CC2)c(C(=O)O)c1 [Compound 64] | bind to RBP4 | 0.0498 | antagonize retinol-dependent RBP4-TTR interaction; also recorded: antagonize RBP4-TTR interaction in vitro at biologically significant concentrations | 1.27 |  |
| O=C(O)c1cnccc1NC(=O)N1CCC(c2ccccc2C(F)(F)F)CC1 [Compound 65] | bind to RBP4 | 0.0199 | antagonize retinol-dependent RBP4-TTR interaction; also recorded: antagonize RBP4-TTR interaction in vitro at biologically significant concentrations | 0.199 |  |
| CC1=C(/C=C/C(C)=C/C=C/C(C)=C/C(=O)Nc2ccc(O)cc2)C(C)(C)CCC1 [fenretinide, N-(4-hydroxy-phenyl)retinamide] |  |  |  |  | did not induce RBP4-TTR interaction |
